One experiment relates to P388. Put plainly: Cytotoxicity against mouse P388 cells. It is filed as functional. The following applies: read-out: ED50 (the source's name).
For the next experiment, the species on record is Homo sapiens. Put plainly: Selectivity ratio of IC50 for Chk1 (unknown origin) to IC50 for (unknown origin).
The test system of experiment [1] is Rattus norvegicus. Put plainly: Antiarthritic activity in adjuvant-induced arthritis rat model assessed as reduction in paw swelling at 20 mg/kg, ip administered for day 6 to 10 post adjuvant measured on day 16 to 20 relative to control. It is filed as functional.
The test system of experiment [2] is Rattus norvegicus. Put plainly: Antiarthritic activity in adjuvant-induced arthritis rat model assessed as reduction in paw swelling at 10 mg/kg, ip administered for day 6 to 10 post adjuvant measured on day 16 to 20 relative to control. It is filed as functional.
Experiment [3] has as its target Cyclin-dependent kinase 5/CDK5 activator 1 (Homo sapiens, UniProt Q00535). Put plainly: Inhibition of CDK5/p25 (unknown origin). It counts as protein-complex assay.
Experiment [4] has as its target Dual specificity mitogen-activated protein kinase kinase 1 (Homo sapiens, UniProt Q02750). Briefly: Inhibition of MEK1 (unknown origin).
Another experiment addresses Protein kinase C (PKC). Put plainly: Inhibition of Protein kinase C (unknown origin). It is filed as protein assay, Homo sapiens.
The target of experiment [5] is Cyclin-dependent kinase 1/cyclin B (Homo sapiens, UniProt P06493). Briefly: Inhibition of CDK1/Cyclin B (unknown origin) in presence of gamma32P-ATP by scintillation counter analysis. It counts as protein-complex assay.
A further experiment relates to L5178Y. Briefly: Cytotoxicity against mouse L5178Y cells by MTT assay. It is filed as functional, cell-based. (In general: Tetrazolium dyes change colour on reduction, which living cells bring about.)
The next experiment has as its system HepG2. Briefly: Cytotoxicity against human HepG2 cells by MTT assay. It is filed as functional, cell-based.
In another experiment the test system is MOLT-3. Briefly: Cytotoxicity against human MOLT-3 cells by MTT assay. It is filed as functional, cell-based.
A further experiment addresses Tubulin. Briefly: Inhibition of tubulin polymerization (unknown origin). It counts as protein-complex assay, Homo sapiens.
In a further experiment the test system is MCF7. Put plainly: Growth inhibition of human MCF7 cells at 1 uM by MTT assay relative to control. It is filed as functional. The following applies: read-out: GI.
The species named for experiment [6] is Mus musculus. Put plainly: Neuroprotective activity in Swiss mouse cortical neurons assessed as increase in cell viability in presence of H2O2 at 1 nM relative to control. It counts as functional.
Experiment [7] deals with Rattus norvegicus. Put plainly: Hypotensive effect in rat vascular smooth muscles assessed as reduction in arterial blood pressure at 5 mg/kg measured after 15 mins. It counts as functional. The following applies: Smooth muscle tissue, 0.25 h.
The test system of experiment [8] is Human immunodeficiency virus 1. Put plainly: Antiviral activity against HIV1 assessed as inhibition of LC5-RIC cells infection at 3.1 uM relative to control. It is filed as functional.
The nature of experiment [9]: Inhibition of cGMP-dependent protein kinase (unknown origin). Set-up: species or system Homo sapiens.
The subject of experiment [10] is THP-1. Briefly: Antiinflammatory activity in human THP-1 cells assessed as inhibition of LPS-stimulated TNFalpha production. It counts as functional, cell-based.
The test system of experiment [11] is THP-1. Briefly: Antiinflammatory activity in human THP-1 cells assessed as inhibition of LPS-stimulated IL2 production. It counts as functional, cell-based.
The species named for experiment [12] is Mus musculus. Briefly: Neuroprotective activity in Swiss mouse cortical neurons assessed as increase in cell viability in presence of H2O2 at 10 nM relative to control. It is filed as functional.
The species named for experiment [13] is Bos taurus. Briefly: Inhibition of Interleukin-1- stimulated iNOS gene expression in bovine articular cartilage. It is filed as functional. The following applies: Cartilage tissue.
The target in experiment [14] is Proto-oncogene tyrosine-protein kinase Src (Homo sapiens, UniProt P12931). Put plainly: Inhibition of c-Src (unknown origin).
Another experiment addresses Casein kinase I. Briefly: Inhibition of CK1 (unknown origin). It is filed as protein assay, Homo sapiens.
Another experiment addresses DNA topoisomerase 1 (Homo sapiens, UniProt P11387). Briefly: Inhibition of topoisomerase 1 (unknown origin).
The next experiment addresses CDK6/cyclin D2 (Homo sapiens, UniProt P30279+Q00534). Briefly: Inhibition of CDK6/Cyclin D2 (unknown origin). It is filed as protein-complex assay.
The target of the next experiment is CDK3/Cyclin E (Homo sapiens, UniProt Q00526). Briefly: Inhibition of CDK3/Cyclin E (unknown origin). It is filed as protein-complex assay.
For experiment [15], the species on record is Bos taurus. Briefly: Inhibition of Interleukin-1- stimulated proteoglycan degradation in bovine articular cartilage. It is filed as functional. The following applies: Cartilage tissue.
A further experiment deals with Casein kinase 2 (Homo sapiens, UniProt P67870+P68400+P19784+Q8NEV1). Briefly: Inhibition of CK2 (unknown origin). It is filed as protein assay.
For experiment [16], the target named is Mitogen-activated protein kinase 3 (Homo sapiens, UniProt P27361). Put plainly: Inhibition of Erk1 (unknown origin).
Experiment [17] deals with Cyclin-dependent kinase 4/cyclin D1 (Homo sapiens, UniProt P11802). Put plainly: Inhibition of CDK4/Cyclin D1 (unknown origin). It counts as protein-complex assay.
Another experiment deals with KB 3-1. Put plainly: Cytotoxicity against human KB-3-1 cells by MTT assay. It counts as functional, cell-based.
The target in experiment [18] is DNA topoisomerase 2-alpha (Homo sapiens, UniProt P11388). Put plainly: Inhibition of topoisomerase 2 alpha (unknown origin).
A short description of experiment [19]: Inhibition of cAMP-dependent protein kinase (unknown origin). Set-up: species or system Homo sapiens.
Experiment [20] has as its target Tyrosine-protein kinase ABL1 (Homo sapiens, UniProt P00519). Put plainly: Inhibition of c-abl (unknown origin).
The next experiment deals with CDK1/Cyclin E (Homo sapiens, UniProt P06493). Put plainly: Inhibition of CDK1/Cyclin E (unknown origin). It is filed as protein-complex assay.
Experiment [21] is described as follows: Inhibition of MAPKK (unknown origin). Set-up: species or system Homo sapiens.
The nature of experiment [22]: Inhibition of IL-1 stimulated PGE2 production in human rheumatoid synovial fibroblasts. It counts as functional, cell-based. The following applies: Fibroblast.
For experiment [23], the target named is Human immunodeficiency virus type 1 reverse transcriptase (Human immunodeficiency virus 1) (UniProt Q72547). Put plainly: Inhibition of HIV1 Reverse transcriptase at 25 uM relative to control.
The next experiment deals with A549. Briefly: Cytotoxicity against human A549 cells by MTT assay. It is filed as functional, cell-based.

The structures appear in SMILES notation. pIC50: −log10 of the molar value. In brackets after ≈: the same amount, converted by molar mass. A value given as a limit tells only on which side of the number the result lay.

Chain of Cyclin-dependent kinase 5/CDK5 activator 1 (Q00535 whole entry): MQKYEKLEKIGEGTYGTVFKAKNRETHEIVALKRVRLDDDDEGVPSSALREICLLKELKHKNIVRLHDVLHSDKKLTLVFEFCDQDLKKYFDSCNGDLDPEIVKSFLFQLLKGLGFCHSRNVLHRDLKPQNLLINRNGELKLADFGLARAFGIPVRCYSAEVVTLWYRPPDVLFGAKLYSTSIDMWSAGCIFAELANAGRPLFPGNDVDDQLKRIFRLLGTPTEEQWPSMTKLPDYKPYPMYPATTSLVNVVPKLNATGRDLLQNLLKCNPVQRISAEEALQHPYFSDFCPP
Chain of Cyclin-dependent kinase 5/CDK5 activator 1 (Q15078 whole entry, further chain): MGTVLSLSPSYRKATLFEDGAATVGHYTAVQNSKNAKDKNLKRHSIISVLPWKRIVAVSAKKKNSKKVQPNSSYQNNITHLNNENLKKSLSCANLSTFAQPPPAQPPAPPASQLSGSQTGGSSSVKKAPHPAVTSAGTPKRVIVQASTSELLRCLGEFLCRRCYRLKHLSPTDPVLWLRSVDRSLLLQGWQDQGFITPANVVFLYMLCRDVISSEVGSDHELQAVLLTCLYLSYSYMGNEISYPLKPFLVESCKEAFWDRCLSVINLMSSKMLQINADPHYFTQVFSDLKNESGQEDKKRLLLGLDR
Chain of Cyclin-dependent kinase 4/cyclin D1 (P11802 whole entry): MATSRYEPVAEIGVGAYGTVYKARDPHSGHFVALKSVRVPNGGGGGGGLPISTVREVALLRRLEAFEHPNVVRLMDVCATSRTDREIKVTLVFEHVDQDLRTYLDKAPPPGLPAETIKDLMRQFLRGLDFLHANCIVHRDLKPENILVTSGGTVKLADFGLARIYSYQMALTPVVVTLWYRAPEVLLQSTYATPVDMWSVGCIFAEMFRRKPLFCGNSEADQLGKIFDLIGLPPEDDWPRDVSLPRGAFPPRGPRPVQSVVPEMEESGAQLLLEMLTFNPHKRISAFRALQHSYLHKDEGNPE
Chain of Cyclin-dependent kinase 4/cyclin D1 (P24385 whole entry, further chain): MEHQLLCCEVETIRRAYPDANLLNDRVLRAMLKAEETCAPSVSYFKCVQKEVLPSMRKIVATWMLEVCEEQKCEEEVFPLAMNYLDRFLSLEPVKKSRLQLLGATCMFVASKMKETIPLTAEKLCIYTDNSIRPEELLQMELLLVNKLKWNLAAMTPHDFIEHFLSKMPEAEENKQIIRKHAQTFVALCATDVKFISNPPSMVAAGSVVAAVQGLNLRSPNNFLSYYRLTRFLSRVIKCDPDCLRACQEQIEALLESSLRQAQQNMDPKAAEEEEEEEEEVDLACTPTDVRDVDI
Chain of CDK3/Cyclin E (P24864 whole entry): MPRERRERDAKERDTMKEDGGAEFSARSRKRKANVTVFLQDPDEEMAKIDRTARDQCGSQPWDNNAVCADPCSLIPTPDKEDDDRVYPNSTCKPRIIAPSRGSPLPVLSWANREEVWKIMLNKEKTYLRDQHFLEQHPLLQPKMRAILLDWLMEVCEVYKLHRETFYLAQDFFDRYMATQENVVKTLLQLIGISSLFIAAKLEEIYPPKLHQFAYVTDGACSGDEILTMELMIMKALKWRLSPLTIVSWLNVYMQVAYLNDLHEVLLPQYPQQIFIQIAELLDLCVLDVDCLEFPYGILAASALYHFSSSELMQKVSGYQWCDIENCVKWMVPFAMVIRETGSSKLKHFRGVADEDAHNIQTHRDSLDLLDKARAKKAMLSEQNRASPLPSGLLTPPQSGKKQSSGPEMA
Chain of CDK3/Cyclin E (Q00526 whole entry): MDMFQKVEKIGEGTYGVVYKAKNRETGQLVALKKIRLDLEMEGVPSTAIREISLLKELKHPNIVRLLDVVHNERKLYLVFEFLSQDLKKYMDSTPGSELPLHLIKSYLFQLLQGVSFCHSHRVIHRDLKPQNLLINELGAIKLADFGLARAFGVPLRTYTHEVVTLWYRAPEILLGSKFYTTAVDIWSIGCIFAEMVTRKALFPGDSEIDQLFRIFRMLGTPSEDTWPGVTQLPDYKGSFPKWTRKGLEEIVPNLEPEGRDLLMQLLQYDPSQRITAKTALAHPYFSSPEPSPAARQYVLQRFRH
Chain of Mitogen-activated protein kinase 3 (P27361 whole entry): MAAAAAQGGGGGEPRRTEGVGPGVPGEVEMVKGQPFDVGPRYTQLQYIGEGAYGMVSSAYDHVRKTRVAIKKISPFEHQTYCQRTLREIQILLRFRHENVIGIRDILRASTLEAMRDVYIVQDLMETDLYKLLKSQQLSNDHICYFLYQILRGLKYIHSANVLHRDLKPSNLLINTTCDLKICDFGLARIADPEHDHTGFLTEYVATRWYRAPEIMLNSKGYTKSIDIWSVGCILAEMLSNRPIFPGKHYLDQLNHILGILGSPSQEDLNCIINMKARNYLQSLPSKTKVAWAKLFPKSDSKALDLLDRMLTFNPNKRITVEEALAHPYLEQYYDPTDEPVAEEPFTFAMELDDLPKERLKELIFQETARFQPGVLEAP
Chain of DNA topoisomerase 2-alpha (P11388 whole entry): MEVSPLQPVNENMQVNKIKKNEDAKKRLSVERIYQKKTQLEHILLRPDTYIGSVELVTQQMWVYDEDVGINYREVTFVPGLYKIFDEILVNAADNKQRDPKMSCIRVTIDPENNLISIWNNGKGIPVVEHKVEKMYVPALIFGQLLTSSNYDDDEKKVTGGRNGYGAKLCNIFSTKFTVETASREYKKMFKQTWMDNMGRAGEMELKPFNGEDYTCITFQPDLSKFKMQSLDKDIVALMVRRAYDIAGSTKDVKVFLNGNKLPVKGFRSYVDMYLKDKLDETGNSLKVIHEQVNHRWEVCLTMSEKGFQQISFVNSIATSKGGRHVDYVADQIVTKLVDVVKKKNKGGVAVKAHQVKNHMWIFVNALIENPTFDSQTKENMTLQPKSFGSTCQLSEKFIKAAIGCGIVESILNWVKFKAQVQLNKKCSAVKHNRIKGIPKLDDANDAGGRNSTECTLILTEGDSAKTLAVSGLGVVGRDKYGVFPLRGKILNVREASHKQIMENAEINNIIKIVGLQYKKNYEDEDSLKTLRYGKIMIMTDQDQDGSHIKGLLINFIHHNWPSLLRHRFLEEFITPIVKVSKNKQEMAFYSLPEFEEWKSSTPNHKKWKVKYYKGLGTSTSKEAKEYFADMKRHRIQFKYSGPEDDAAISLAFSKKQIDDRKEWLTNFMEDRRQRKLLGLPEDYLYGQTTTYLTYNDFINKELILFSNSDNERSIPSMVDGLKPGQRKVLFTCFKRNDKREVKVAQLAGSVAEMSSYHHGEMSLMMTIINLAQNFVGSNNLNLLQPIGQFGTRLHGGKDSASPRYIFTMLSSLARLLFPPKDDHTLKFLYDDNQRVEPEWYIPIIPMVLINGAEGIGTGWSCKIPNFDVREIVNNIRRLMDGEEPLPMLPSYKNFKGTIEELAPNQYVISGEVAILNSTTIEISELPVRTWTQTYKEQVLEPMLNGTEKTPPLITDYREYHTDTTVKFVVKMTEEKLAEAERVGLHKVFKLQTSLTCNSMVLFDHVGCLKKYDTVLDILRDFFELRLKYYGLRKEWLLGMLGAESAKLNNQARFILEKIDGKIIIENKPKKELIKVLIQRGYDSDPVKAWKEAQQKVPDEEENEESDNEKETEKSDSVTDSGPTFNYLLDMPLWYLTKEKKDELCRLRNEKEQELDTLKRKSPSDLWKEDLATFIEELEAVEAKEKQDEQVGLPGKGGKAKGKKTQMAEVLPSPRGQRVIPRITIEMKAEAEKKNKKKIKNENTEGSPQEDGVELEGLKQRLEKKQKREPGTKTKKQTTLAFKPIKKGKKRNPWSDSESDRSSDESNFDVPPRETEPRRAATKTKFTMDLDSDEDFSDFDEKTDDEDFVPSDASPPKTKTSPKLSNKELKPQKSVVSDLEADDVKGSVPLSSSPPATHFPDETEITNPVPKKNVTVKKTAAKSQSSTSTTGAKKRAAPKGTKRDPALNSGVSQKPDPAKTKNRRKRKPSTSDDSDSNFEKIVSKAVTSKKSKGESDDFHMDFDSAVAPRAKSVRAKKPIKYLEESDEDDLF
Chain of Proto-oncogene tyrosine-protein kinase Src (P12931 2-536 limits assumed): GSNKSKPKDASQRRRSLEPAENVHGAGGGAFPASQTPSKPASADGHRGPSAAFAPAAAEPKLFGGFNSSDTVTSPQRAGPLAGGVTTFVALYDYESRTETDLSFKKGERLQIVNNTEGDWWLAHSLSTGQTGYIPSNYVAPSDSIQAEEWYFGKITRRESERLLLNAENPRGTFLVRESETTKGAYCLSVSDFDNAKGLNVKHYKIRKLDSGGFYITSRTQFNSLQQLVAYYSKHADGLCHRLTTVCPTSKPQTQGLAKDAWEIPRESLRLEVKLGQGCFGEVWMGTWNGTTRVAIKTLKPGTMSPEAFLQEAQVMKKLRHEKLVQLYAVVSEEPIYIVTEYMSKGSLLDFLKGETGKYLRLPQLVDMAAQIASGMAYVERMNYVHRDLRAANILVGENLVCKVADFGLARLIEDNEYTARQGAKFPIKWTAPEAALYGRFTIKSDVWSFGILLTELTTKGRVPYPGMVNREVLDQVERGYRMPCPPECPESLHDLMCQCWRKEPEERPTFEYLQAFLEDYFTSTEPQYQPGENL
Chain of CDK1/Cyclin E (P06493 whole entry): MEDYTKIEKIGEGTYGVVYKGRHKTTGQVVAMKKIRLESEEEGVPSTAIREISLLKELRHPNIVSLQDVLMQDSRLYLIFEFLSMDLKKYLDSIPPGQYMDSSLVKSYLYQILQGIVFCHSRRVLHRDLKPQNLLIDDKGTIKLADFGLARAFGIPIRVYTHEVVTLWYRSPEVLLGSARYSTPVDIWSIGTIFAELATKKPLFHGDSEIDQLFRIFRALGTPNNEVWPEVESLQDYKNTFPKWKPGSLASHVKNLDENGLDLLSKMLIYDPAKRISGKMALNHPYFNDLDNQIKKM
Chain of CDK1/Cyclin E (P24864 whole entry, further chain): as the sequence (P24864 whole entry) above

For `O=C1NC(=O)/C(=C2/CCNC(=O)c3[nH]c(Br)cc32)N1`, in the experiment on P388, the EC50 came out at 18 µg/mL (≈ 55.4 µM).

Broadly, the inhibition in vivo is the drop in the measured response relative to a control, in per cent. What is called pIC50 is −log10 of the IC50, conventionally taken in molar units. What is called IC50 is the midpoint of a concentration-inhibition curve. A high value points to a need for much substance. `NC1=N/C(=C2/CCNC(=O)c3[nH]ccc32)C(=O)N1` [DEBROMOHYMENIALDISINE]: in the experiment filed under Homo sapiens, the Ratio IC50 amounted to 4. For the same compound, in the experiment with Rattus norvegicus [1], the inhibition in vivo at 20 mg/kg is more than 60%. In addition, the inhibition in vivo at 10 mg/kg with Rattus norvegicus [2] amounted to 63%. Further, the pIC50 is 6.95 in experiment [3], 6.09 in experiment [4] and 6.60 in experiment [5]. Further, the IC50 at Protein kinase C (PKC) is less than 10000 nM. This compound also gave an EC50 with L5178Y of 1.8 µg/mL (≈ 7.34 µM).

With `O=C1NCCc2ccccc2-c2c1[nH]c1ccccc21`, the pIC50 was 6.34 in the experiment with HepG2, 8.05 in the experiment with MOLT-3 and 5.11 on Tubulin.

Consider `O=C1NCc2ccccc2-c2c1sc1ccccc21`, for which, in the experiment on MCF7, the inhibition of growth at 1 µM is 17%.

In the case of `Nc1nc(C2CCNC(=O)c3[nH]c(Br)c(Br)c32)c[nH]1` (stereo unspecified), the Activity in the experiment listed under Mus musculus [6] is reported as 120%. Besides, in the experiment on Rattus norvegicus [7], the inhibition in vivo at 5 mg/kg worked out at 90%.

A word on the inhibition: it is the relative decrease from the control value, in per cent. `NC1=NC(=O)/C(=C2\CCNC(=O)c3[nH]c(Br)cc32)N1` [HYMENIALDISINE]: in experiment [8], the inhibition at 3.1 µM was 30%. In addition, the pIC50 in experiment [9] was 5.77; in the experiment on THP-1 [10], 5.85; with THP-1 [11], 5.62; in the experiment listed under Bos taurus [13], 6.10; in experiment [14], 5.15; against DNA topoisomerase 1, 5.00. The negative logarithm of the IC50 (pIC50) is 6.15 on CDK6/cyclin D2; 7.00 against CDK3/Cyclin E; 6.22 in the experiment filed under Bos taurus [15]; 7.60 in [3]; 6.33 in experiment [16]; 6.22 in experiment [17]. Also, the negative-log IC50 (pIC50) is 5.51 in the experiment with KB 3-1; 5.00 in experiment [18]; 5.10 in [19]; 5.40 in experiment [20]; 7.40 against CDK1/Cyclin E; 5.92 in experiment [21]. In addition, the pIC50 in experiment [22] is 6.22. Further, the Activity in the experiment filed under Mus musculus [12] is recorded as 120%. In addition, the IC50 against Casein kinase I was 35 nM; on Casein kinase 2 it was 7000 nM. The same compound gave an inhibition in [23] of 90%. In addition, the EC50 in the experiment on L5178Y was 3.5 µg/mL (≈ 10.8 µM).

`Cc1ccc2[nH]c3c(c2c1)CNC(=O)c1[nH]c2ccccc2c1-3`: in the experiment with A549, the negative-log IC50 (pIC50) was 5.38.

(Values after ChEMBL document CHEMBL5226304, “Fused-azepinones: Emerging scaffolds of medicinal importance” (Eur J Med Chem, 2021).)
